In patent publication US8273774B2, “Phenoxypyridinylamide compounds” (AstraZeneca AB, priority 2008, dated 2012):

Target: recombinant Human Phosphodiesterase B2 (PDE4B2) (Homo sapiens, UniProt Q07343)
Assay: Human Phosphodiesterase B2 Radiometric Assay
Type: biochemical
Settings: 0.1 μg/mL recombinant PDE4B2; preincubated at 30 C for 30 min; [3H]cyclic AMP 8 nM, stopped after 20 min; yttrium silicate SPA beads; read-out: PDE4B2 pIC50 (converted)
Method: Human Phosphodiesterase B2 Radiometric Assay
The assay uses recombinant Human Phosphodiesterase B2 (PDE4B2) produced in house (PrAZL0163), stored at −20° C. This assay is based on the observation that 5′AMP, the product of the reaction catalysed by PDE4, binds preferentially to yttrium silicate SPA beads (Amersham Biosciences, UK) compared to the substrate, cAMP. Compounds at the appropriate concentration were preincubated at 30 C for 30 min with an assay buffer containing 50 mM HEPES (pH 7.5), 8.3 mM MgCl2, 1.7 mM EGTA, 0.01% (w/v) Brij®35 and 0.1 μg/mL recombinant PDE4B2. The reaction was started by the addition of [3H]cyclic AMP to give a final concentration of 8 nM, and was stopped 20 min after the addition of the substrate by the addition of yttrium silicate SPA beads containing 18 mM Zn SO4. Bound […] was measured using a Topcount NXT (Packard Bioscience, UK). pIC50 values (presented in Table 2) were determined using Xlfit3 curve fitting, using model 205.

Chain of recombinant Human Phosphodiesterase B2 (PDE4B2) (Q07343 1-564 isoform Q07343-2): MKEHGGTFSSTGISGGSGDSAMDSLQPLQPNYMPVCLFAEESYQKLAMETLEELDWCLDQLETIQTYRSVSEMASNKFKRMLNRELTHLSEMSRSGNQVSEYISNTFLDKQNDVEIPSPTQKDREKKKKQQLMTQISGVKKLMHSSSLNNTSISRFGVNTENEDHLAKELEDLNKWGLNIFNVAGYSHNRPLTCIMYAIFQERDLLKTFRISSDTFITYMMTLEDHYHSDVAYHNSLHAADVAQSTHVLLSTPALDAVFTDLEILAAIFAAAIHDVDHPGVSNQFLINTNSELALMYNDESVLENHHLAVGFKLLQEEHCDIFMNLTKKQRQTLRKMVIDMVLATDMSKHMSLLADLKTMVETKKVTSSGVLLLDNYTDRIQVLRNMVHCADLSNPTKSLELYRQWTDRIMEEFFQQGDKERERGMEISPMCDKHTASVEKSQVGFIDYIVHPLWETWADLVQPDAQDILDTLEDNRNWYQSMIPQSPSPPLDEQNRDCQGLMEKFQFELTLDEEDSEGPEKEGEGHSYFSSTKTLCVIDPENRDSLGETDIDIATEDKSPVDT

For `Cc1nc(C(=O)N[C@H]2CC[C@@H](NC(=O)c3cc(F)cnc3Oc3cccc(-c4ccc(O)cc4CN(C)C(C)(C)C)c3)CC2)cs1` [Example 26, N-((1s,4s)-4-(2-(2′-((tert-butyl(methyl)amino)methyl)-4′-hydroxybiphenyl-3-yloxy)-5-fluoronicotinamido)cyclohexyl)-2-methylthiazole-4-carboxamide], which IC50 is on record?
The IC50 was 0.2 nM.

`CN1CCCN(Cc2cc(O)ccc2-c2cccc(Oc3ncc(F)cc3C(=O)N[C@H]3CC[C@@H](NC(=O)c4ccc5ccccc5n4)CC3)c2)CC1` [Example 27, N-((1s,4s)-4-(5-fluoro-2-(4′-hydroxy-2′-((4-methyl-1,4-diazepan-1-yl)methyl)biphenyl-3-yloxy)nicotinamido)cyclohexyl)quinoline-2-carboxamide] was tested. Which IC50 did it give?
The IC50 was 0.631 nM.

For `Cc1ccc(O)c(C(=O)N[C@H]2CC[C@@H](NC(=O)c3cc(F)cnc3Oc3cccc(-c4ccc(O)cc4CN4CCOCC4)c3)CC2)c1` [Example 28, 5-fluoro-2-(4′-hydroxy-2′-(morpholinomethyl)biphenyl-3-yloxy)-N-((1s,4s)-4-(2-hydroxy-5-methylbenzamido)cyclohexyl)nicotinamide], which IC50 is on record?
Its IC50 is 0.0251 nM.

Which IC50 does the source give for `CC(=O)N1CCN(Cc2cc(O)ccc2-c2cccc(Oc3ncc(F)cc3C(=O)N[C@H]3CC[C@@H](NC(=O)c4csc(C)n4)CC3)c2)CC1` [Example 29, N-((1s,4s)-4-(2-(2′-((4-acetylpiperazin-1-yl)methyl)-4′-hydroxybiphenyl-3-yloxy)-5-fluoronicotinamido)cyclohexyl)-2-methylthiazole-4-carboxamide] here?
Its IC50 is 0.0398 nM.

With `Cc1nc(C(=O)N[C@H]2CC[C@@H](NC(=O)c3cc(F)cnc3Oc3cccc(-c4ccc(O)cc4CN(C)CC(=O)N(C)C)c3)CC2)cs1` [Example 30, N-((1s,4s)-4-(2-(2′-(((2-(dimethylamino)-2-oxoethyl)(methyl)amino)methyl)-4′-hydroxybiphenyl-3-yloxy)-5-fluoronicotinamido)cyclohexyl)-2-methylthiazole-4-carboxamide] as the compound, how does the IC50 read?
Its IC50 is 0.0398 nM.

With `O=C(N[C@H]1CC[C@@H](NC(=O)c2cc(F)cnc2Oc2cccc(-c3ccc(O)cc3CN3CCOCC3)c2)CC1)c1ccc(O)cc1` [Example 31, 5-fluoro-2-(4′-hydroxy-2′-(morpholinomethyl)biphenyl-3-yloxy)-N-((1s,4s)-4-(4-hydroxybenzamido)cyclohexyl)nicotinamide] as the compound, how does the IC50 read?
Its IC50 is 0.501 nM.

Which IC50 does the source give for `O=C(N[C@H]1CC[C@@H](NC(=O)c2cc(F)cnc2Oc2cccc(-c3ccc(O)cc3CN3CCOCC3)c2)CC1)c1cccc(O)c1` [Example 32, 5-fluoro-2-(4′-hydroxy-2′-(morpholinomethyl)biphenyl-3-yloxy)-N-((1s,4s)-4-(3-hydroxybenzamido)cyclohexyl)nicotinamide] here?
The IC50 was 0.316 nM.

Which IC50 does the source give for `Cc1ncsc1C(=O)N[C@H]1CC[C@@H](NC(=O)c2cc(F)cnc2Oc2cccc(-c3ccc(O)cc3CN3CCOCC3)c2)CC1` [Example 33, N-((1s,4s)-4-(5-fluoro-2-(4′-hydroxy-2′-(morpholinomethyl)biphenyl-3-yloxy)nicotinamido)cyclohexyl)-4-methylthiazole-5-carboxamide] here?
The IC50 was 0.631 nM.

How did the IC50 turn out when `Cc1nc(C(=O)N[C@H]2CC[C@@H](NC(=O)c3cc(F)cnc3Oc3cccc(-c4ccc(O)cc4CN4CCOCC4)c3)CC2)cs1` [Example 34, N-((1s,4s)-4-(5-fluoro-2-(4′-hydroxy-2′-(morpholinomethyl)biphenyl-3-yloxy)nicotinamido)cyclohexyl)-2-methylthiazole-4-carboxamide] was run?
Its IC50 is 0.0251 nM.

`O=C(N[C@H]1CC[C@@H](NC(=O)c2cc(F)cnc2Oc2cccc(-c3ccc(O)cc3CN3CCOCC3)c2)CC1)c1csc(C(F)(F)F)n1` [Example 36, N-((1s,4s)-4-(5-fluoro-2-(4′-hydroxy-2′-(morpholinomethyl)biphenyl-3-yloxy)nicotinamido)cyclohexyl)-2-(trifluoromethyl)thiazole-4-carboxamide] was tested. Which IC50 did it give?
Its IC50 is 0.1 nM.

How did the IC50 turn out when `CC(C)c1ncc(C(=O)N[C@H]2CC[C@@H](NC(=O)c3cc(F)cnc3Oc3cccc(-c4ccc(O)cc4CN4CCOCC4)c3)CC2)s1` [Example 37, N-((1s,4s)-4-(5-fluoro-2-(4′-hydroxy-2′-(morpholinomethyl)biphenyl-3-yloxy)nicotinamido)cyclohexyl)-2-isopropylthiazole-5-carboxamide] was run?
The IC50 was 0.2 nM.

How did the IC50 turn out when `O=C(N[C@H]1CC[C@@H](NC(=O)c2cc(F)cnc2Oc2cccc(-c3ccc(O)cc3CN3CCOCC3)c2)CC1)c1ccccc1O` [Example 38, 5-fluoro-2-(4′-hydroxy-2′-(morpholinomethyl)biphenyl-3-yloxy)-N-((1s,4s)-4-(2-hydroxybenzamido)cyclohexyl)nicotinamide] was run?
Its IC50 is 0.0398 nM.

With `CC(C)c1nc(C(=O)N[C@H]2CC[C@@H](NC(=O)c3cc(F)cnc3Oc3cccc(-c4ccc(O)cc4CN4CCOCC4)c3)CC2)cs1` [Example 39, N-((1s,4s)-4-(5-fluoro-2-(4′-hydroxy-2′-(morpholinomethyl)biphenyl-3-yloxy)nicotinamido)cyclohexyl)-2-isopropylthiazole-4-carboxamide] as the compound, how does the IC50 read?
Its IC50 is 0.02 nM.

`O=C(N[C@H]1CC[C@@H](NC(=O)c2cc(F)cnc2Oc2cccc(-c3ccc(O)cc3CN3CCOCC3)c2)CC1)c1cccc(O)n1` [Example 40, N-((1s,4s)-4-(5-fluoro-2-(4′-hydroxy-2′-(morpholinomethyl)biphenyl-3-yloxy)nicotinamido)cyclohexyl)-6-hydroxypicolinamide] was tested. Which IC50 did it give?
Its IC50 is 0.794 nM.

For `O=C(N[C@H]1CC[C@@H](NC(=O)c2cc(F)cnc2Oc2cccc(-c3ccc(O)cc3CN3CCOCC3)c2)CC1)c1cc(O)c2ccccc2n1` [Example 41, N-((1s,4s)-4-(5-fluoro-2-(4′-hydroxy-2′-(morpholinomethyl)biphenyl-3-yloxy)nicotinamido)cyclohexyl)-4-hydroxyquinoline-2-carboxamide], which IC50 is on record?
Its IC50 is 0.1 nM.

`O=C(N[C@H]1CC[C@@H](NC(=O)c2cc(F)cnc2Oc2cccc(-c3ccc(O)cc3CN3CCOCC3)c2)CC1)c1cc2ccccc2nc1O` [Example 42, N-((1s,4s)-4-(5-fluoro-2-(4′-hydroxy-2′-(morpholinomethyl)biphenyl-3-yloxy)nicotinamido)cyclohexyl)-2-hydroxyquinoline-3-carboxamide] was tested. Which IC50 did it give?
The IC50 was 0.0501 nM.

How did the IC50 turn out when `CN(C)Cc1cc(O)ccc1-c1cccc(Oc2ncc(F)cc2C(=O)N[C@H]2CC[C@@H](NC(=O)c3csc(C(C)(C)C)n3)CC2)c1` [Example 43, 2-tert-butyl-N-((1s,4s)-4-(2-(2′-((dimethylamino)methyl)-4′-hydroxybiphenyl-3-yloxy)-5-fluoronicotinamido)cyclohexyl)thiazole-4-carboxamide] was run?
The IC50 was 0.126 nM.

For `CN(C)Cc1cc(O)ccc1-c1cccc(Oc2ncc(F)cc2C(=O)N[C@H]2CC[C@@H](NC(=O)c3nc4ccccc4s3)CC2)c1` [Example 44, N-((1s,4s)-4-(2-(2′-((dimethylamino)methyl)-4′-hydroxybiphenyl-3-yloxy)-5-fluoronicotinamido)cyclohexyl)benzo[d]thiazole-2-carboxamide], which IC50 is on record?
The IC50 was 0.1 nM.

For `Cc1csc(C(=O)N[C@H]2CC[C@@H](NC(=O)c3cc(F)cnc3Oc3cccc(-c4ccc(O)cc4CN4CCOCC4)c3)CC2)n1` [Example 45, N-((1s,4s)-4-(5-fluoro-2-(4′-hydroxy-2′-(morpholinomethyl)biphenyl-3-yloxy)nicotinamido)cyclohexyl)-4-methylthiazole-2-carboxamide], which IC50 is on record?
The IC50 was 0.0158 nM.
